Results on one molecule are retold here after US7799794B2, “Treatment for cardiovascular disease” (Merck Sharp & Dohme Corp., priority 2000, dated 2010).

Common to all, as to format: in vivo, rat
Test [1] concerns Sprague-Dawley rats. The experiment in a line: Oxonic acid on low sodium diet with or without allopurinol: blood pressure, uric acid (Example 2). The note with it: allopurinol from the initiation of the oxonic acid diet, low salt. The procedure:
All studies utilized adult male Sprague-Dawley rats (Simonsen Laboratories, Gilroy Calif.)(200-250 g).
(§1) Rats were placed on a low sodium diet (NaCl, 0.125%) with or without 2% oxonic acid for 7 weeks. A third group were administered allopurinol in the drinking water (150 mg/L) with weekly adjustments of the dose depending on the uric acid level.
Am J Physiol 268:F1164-76, 1995].
(§2) Am J Clin Pathol 1957; 28:152.]. Serum blood urea nitrogen was measured by a standard kit (Sigma, St Louis, Mo.).

For test [2], the system named is Sprague-Dawley rats. Kind of test: Allopurinol intervention or oxonic acid withdrawal in hyperuricemic rats: blood pressure (Example 3). The note with it: allopurinol added at 7 weeks, OA/LSD continued.
Description: (§3) Rats were placed on the low sodium diet with oxonic acid for 7 weeks, and then were matched based on uric acid level and blood pressure in various groups to either receive allopurinol, have the oxonic acid withdrawn from the diet, or continue the oxonic acid/low salt diet. A control group of six rats were placed on the lowsodium diet alone for 11 weeks. All of these rats were sacrificed at week 11.
Am J Physiol 268:F1 164-76, 1995].
as §2

Test [3] concerns Sprague-Dawley rats. Kind of test: Renal findings at 7 weeks: immunohistochemistry and BUN (Example 2). Particulars: low NaCl diet. The procedure:
as §1, §2
(§4) Renal biopsies were fixed in Methyl-Carnoy's, 10% formalin or 100% ethanol and embedded in paraffin. The presence of uric acid crystals was evaluated by staining 4-μm ethanol-fixed sections with de Galantha and modified Von Kossa stains. Kidney tissue from rats with acute uric acid nephropathy, induced with oxonic acid and uric acid administration was used as a positive control [Stavric, B., Johnson, W. J., and Grice, H. C., Uric acid nephropathy: An experimental model, Proc. Soc. Exp. Biol. Med. 130: 512-16 (1969).]. Light microscopy was performed in 4-μm sections of Methyl-Carnoy's fixed tissue stained with periodic acid Schiff (PAS) reagent or with hematoxylin and eosin.
(§5) Methyl-Carnoy's fixed tissue sections were analyzed by indirect immunoperoxidase [Lombardi, D., Gordon , K. L., Polinsky, P., Suga, S., Schwartz, S. M., and Johnson, R. J. Salt sensitive hypertension develops after transient exposure to angiotensin II. Hypertension 33:1013-1019, 1999] staining with the following primary antibodies: OP199, a goat polyclonal antibody against osteopontin (OPN)(gift of C. Giachelli, Univ of Wash., Seattle); ED-1, a monoclonal antibody to rat monocytes and macrophages (Serotec); goat antihuman type III collagen (Southern Biotechnology Associates Inc, Birminghan Ala.); and anti-renin, a mouse antibody to human renin (Sanofi Recherche, Montpellier, France). Sections were incubated with a secondary antibody followed by horseradish peroxidase-conjugated avidin D (Vector Laboratories, Burlingame, Calif.), diaminobenzidine (Sigma) with or without nickel chloride as a chromogen, and counsterstained with methyl green.
(§6) NOS1 was detected on formalin fixed tissue sections with a rabbit anti-rat neuronal nitric oxide synthase (Transduction Laboratories, Lexington, Ky.), followed by a biotinylated secondary antibody, diaminobenzidine with nickel chloride and counterstained with nuclear fast red.
(§7) All quantification was performed blinded. The tubular expression of osteopontin (OPN), which is a sensitive marker of tubulointerstitial injury, was calculated as the percent of renal cortex occupied by OPN-positive tubules [Lombardi, D., Gordon, K. L., Polinsky, P., Suga, S., Schwartz, S. M., and Johnson, R. J. Salt sensitive hypertension develops after transient exposure to angiotensin II. Hypertension 33:1013-1019, 1999]. Utilizing computer-assisted image analysis software (Optimas V6.2, Media Cybernetics, Silver Springs, Md.) and digitized images, the percent of area occupied by OPN positive tubules per 4 mm^2 field at a magnification of 50× was measured and the mean percent area calculated for each biopsy. The interstitial deposition of collagen type III was calculated as the % of renal cortex occupied by collagen III, noted by immunostaining, by computer image analysis. The mean number of interstitial macrophages (ED-1+cells) in each biopsy was calculated in a blinded manner by counting the total number of positive interstitial cortical cells in 20 sequentially selected 0.25 mm^2 grids at 200× magnification. Renin expression was quantified by the number of glomeruli with positive staining for juxtaglomerular renin using a minimum of 100 glomeruli in each biopsy as previously described [Eng, E., et al., Renal proliferation and phenotypic changes in rats with two-kidney, one-clip Goldblatt hypertension. Am J Hypertens 7:177-185 (1994)]; this has been shown previously to correlate with intrarenal renin content[Eng, E., et al., Renal proliferation and phenotypic changes in rats with two-kidney, one-clip Goldblatt hypertension. Am J Hypertens 7:177-185 (1994)]. […]

In test [4] the test system is Sprague-Dawley rats. Kind of test: Renal findings at 11 weeks: immunohistochemistry and BUN (Example 3). Particulars: low NaCl diet, allopurinol added at 7 weeks. The protocol:
as §3, §2, §4, §5, §6
as §7, with “hypertension.” for “hypertension. Am J Hypertens 7:177-185 (1994)]; this has been shown previously to correlate with intrarenal renin content[Eng, E., et al., Renal proliferation and phenotypic changes in rats with two-kidney, one-clip Goldblatt hypertension. Am J Hypertens 7:177-185 (1994)].”

Each structure is given as a SMILES string.

On to `Oc1ncnc2[nH]ncc12` [Allopurinol, allopurinol], for which, in test [1], the “development of hyperuricemia and hypertension” value is listed as “prevented”. In addition, the “blood pressure and serum uric acid in hypertensive, hyperuricemic rats” value in test [2] is “reduction in the blood pressure in association with a fall in serum uric acid values”. The results for the Renin in test [3] (control 39.6 ± 2.0) and in test [4] (control 41.0 ± 1.9) were 44.1 ± 1.6 % positive JGA and 44.2 ± 1.3 % positive JGA, respectively. Also, the NOS-1 in test [3] (control 147.2 ± 12.4) was 97.4 ± 5.6 positive cells/100 glomeruli; in test [4] (control 104.4 ± 11.5) it was 98.6 ± 5.1 positive cells/100 glomeruli. In addition, the OPN came to 1.3 ± 0.15 % increase in test [3] (mean±SE, control 0.9 ± 0.06) and 0.97 ± 0.03 % increase in test [4] (control 0.7 ± 0.08). Besides, the “Type III collagen” value in test [3] (mean±SE, control 5.4 ± 0.3) turned out to be 6.2 ± 0.6%; in test [4] (control 7.2 ± 0.6) it was 9.6 ± 0.3 %. The BUN is 15.2 ± 2.3 mg/dL in test [3] (mean±SE, control 14.4 ± 1.2) and 17.7 ± 0.5 mg/dL in test [4] (control 16.6 ± 0.9). In addition, the “ED-1 (macrophages)” value in test [3] (mean±SE, control 18.3 ± 1.3) was 20.5 ± 0.6 cells/mm2; in test [4] (control 27.8 ± 1.4) it was 25.2 ± 2.6 cells/mm2.
